Patent US8334316B2, “Substituted organosulfur compounds and methods of using thereof” (ACEA Biosciences, Inc., priority 2004, dated 2012)

What was measured:
Type in all cases: cell-based
[1] = test system: MDA-MB231 (M231, human breast cancer cell line); assay: RT-CES system cell proliferation/cytotoxicity IC50, MDA-MB231; conditions: MDA-MB-231, time point of maximum inhibition
Text: (§1) The RT-CES system comprises three components, an electronic sensor analyzer, a device station and 16× or 96× microtiter plate devices. Microelectrode sensor array was fabricated on glass slides with lithographical microfabrication methods and the electrode-containing slides are assembled to plastic trays to form electrode-containing wells. Each 16× (or 96×) microtiter plate device used in RT-CES system comprises up to 16 (or 96) such electrode-containing wells. The device station receives the 16× or 96× microtiter plate devices and is capable of electronically switching any one of the wells to the sensor analyzer for impedance measurement. In operation, the devices with cells cultured in the wells are placed into a device station that is located inside an incubator. Electrical cables connect the device station to the sensor analyzer. Under the RT-CES software control, the sensor analyzer can automatically select wells to be measured and continuously conduct impedance measurements. The impedance data from the analyzer is transferred to a computer, analyzed and processed by the integrated software.
(§2) To quantify cell status based on the measured cell-electrode impedance, a parameter termed Cell Index is derived, according to
(§3) [formula] where Rb(f) and Rcell(f) are the frequency dependent electrode resistances (a component of impedance) without cells or with cell present, respectively. N is the number of the frequency points at which the impedance is measured. Thus, Cell Index is a quantitative measure of the status of the cells in an electrode-containing well. Under the same physiological conditions, more cells attached on to the electrodes leads to larger Rcell(f) value, leading to a larger value for Cell Index. Furthermore, for the same number of cells present in the well, a change in the cell status such as morphology will lead to a change in the Cell Index. For example, an increase in cell adhesion or cell spreading leads to larger cell-electrode contact area which will lead to an increase in Rcell(f) and thus a larger value for Cell Index. The Cell Index may also be calculated using a formula different from the one described here. Other methods for calculating the Cell Index based on impedance measurement can be found in PCT application number PCT/US04/37696, fined on Nov. 12, 2004, PCT application number PCT/US05/04481, filed on Feb. 9, 2005, U.S. patent application Ser. No. 10/987,732, filed on Nov. 12, 2004, and U.S. patent application Ser. No. 11/055,639, filed on Feb. 9, 2005.
Dibenzyl trisulfide solution in DMSO was added into wells following the incubation period. The cell status was monitored prior to and after the compound addition using RT-CES system. The cell indexes of different wells were between 0.65 and 0.82 just before the compound addition. […] The cell index was normalized against the cell index values at a time point just after compound addition (about 19.6 hrs after cell seeding).
(§4) For the assay performed on the RT-CES system, the cells were seeded into the 16× or 96× microtiter plate devices (electronic plates, i.e., the plates comprise microelectrode sensor arrays in the wells of the plate) at the seeding density ranging from 5000 cells/well to 15,000 cells/well. The cells were incubated at 5% CO2 and 37° C. for overnight till the cell indices reached the growth phase where the cell index was between 0.8 and 1.2. Serially diluted compounds were then added to the cells followed by dynamic monitoring of the effect of the compounds on the cell proliferation and cytotoxicity. The time-dependent IC50 values for each derivative were calculated based the dose responses of cell index value at different time points after compound treatment.
The anticancer potency of a DBTS derivative, ACEA100108 was tested in 7 cancer cell lines on the […]. The cell lines were HT1080, H460, OVCAR4, MCF7, MDA-MB231, HepG2, and A2780. […]

[2] = test system: MDA-MB231 (M231, human breast cancer cell line); assay: MTT assay IC50 (48 h), MDA-MB231; conditions: MDA-MB-231, M231, 48 hours
Description: (§5) In another assay format, a test compound is assayed for its cytotoxicity and/or cytostatic effect on certain cancer cell types, using endpoint assay methods. Cells in the NCI cancer cell panel may be used. Cells after a pre-incubation for certain length of time (for example, 8 hrs or 24 hrs) are incubated with a test compound at serially-diluted concentrations (for example, five 10-fold dilutions) for 24 hrs and/or 48 hrs, and/or other specific length of time. The dose dependent cytotoxicity and/or cytostatic effects of test compounds can then be tested and evaluated using the 3-(4,5-dimethylthiazol-2-yl)-2,5-diphenyltetrazolium bromide (MTT) assay method, as described by, for example, Boyd (In Principle of Practice of Oncology, Devita, J. T., Hellman, S. and Rosenberg S. A. (Eds), 1989, Vol, 3, PPO Update, No. 10).
(§6) The anticancer potency of DBTS and its derivatives were tested in 8 different types of human cancer cell lines using the RT-CES system and MTT assay. The 8 cancer cell lines were HT1080 (the human fibrosarcoma cell line), H460 (human non small cell lung cancer cell line), OVCAR4 (the human ovarian cancer cell line), MCF7 (human breast cancer cell line) MDA-MB231 (M231, the human breast cancer cell line) A2780 (the human […] cancer cell line) Jurkat (the human T cell leukemia cell line). The test DBTS derivatives include ACEA100107, ACEA100108, ACEA100109, ACEA100111, ACEA100115, ACEA100116, ACEA100117, ACEA100118, ACEA100119, and ACEA100120.
(§7) For the MTT assay, the cells were seeded into the regular 96× well plates at the cell seeding density ranging from 5000 cells/well to 15,000 cells/well. The cells were incubated at 5% CO2 and 37° C. for overnight. The derivatives were serially diluted and added to the cells. The treatment was terminated after 48 hours of incubation by adding MTT staining reagent. After 4 hours, the staining was stopped by the stop buffer and then the calorimetric measurement was carried out on a microtiter plate reader at dual wave length, 650 nm and 550 nm.

A2780 cells = assay: RT-CES system cell proliferation/cytotoxicity IC50, A2780; conditions: Homo sapiens, time point of maximum inhibition
Text: as §1, §2, §3
A2780 cells (human […]) were seeded into wells of 16× or 96× microtiter plate devices (electronic plates, i.e., the plates comprise microelectrode sensor arrays in the wells of the plate) with an initial seeding density of 20,000 cells per well and were pre-incubated in incubator under standard cell culture conditions for about 16.4 hrs. Dibenzyl trisulfide solution in DMSO was added into wells following the incubation period. The cell status was monitored prior to and after the compound addition using RT-CES system. The cell indexes of different wells were between 2.2 and 3.7 just before the compound addition. […] The cell index was normalized against the cell index values at a time point just after compound addition (about 17.5 hrs after cell seeding).
as §4, with “The time-dependent IC50 values for each derivative were calculated based the dose responses of cell index value at different time points after compound treatment.” left out

[3] = test system: MCF7 (human breast cancer cell line); assay: MTT assay IC50 (48 h), MCF7; conditions: MCF-7, 48 hours
Description: as §5, §6, §7

c1ccc(CSSSCc2ccccc2)cc1 [DBTS, Dibenzyl trisulfide]
IC50 [1]: 2.4 µM
IC50 [2]: 2400 nM
IC50 (A2780 cells): 0.4 µM
IC50 [3]: > 50000 nM

Clc1ccccc1CSSSCc1ccccc1Cl [ACEA100115, Di(o-chlorobenzyl)trisulfide]
IC50 [1]: 1.06 µM
IC50 [2]: 3100 nM
IC50 (A2780 cells): 0.75 µM
IC50 [3]: > 50000 nM

Fc1ccc(CSSSCc2ccc(F)cc2)cc1 [ACEA100108, Di(p-fluorobenzyl)trisulfide]
IC50 [1]: 3.05 µM
IC50 [2]: 4400 nM
IC50 (A2780 cells): 0.5 µM
IC50 [3]: > 50000 nM

Clc1ccc(CSSSCc2ccc(Cl)cc2)cc1 [ACEA100118, Di(p-chlorobenzyl)trisulfide]
IC50 [1]: 2.3 µM
IC50 [2]: 1200 nM
IC50 (A2780 cells): 0.7 µM
IC50 [3]: > 50000 nM

Cc1cccc(CSSSCc2cccc(C)c2)c1 [ACEA100116, di(m-methylbenzyl)trisulfide]
IC50 [1]: 1.06 µM
IC50 [2]: 650 nM
IC50 (A2780 cells): 0.75 µM
IC50 [3]: > 50000 nM

FC(F)(F)c1cccc(CSSSCc2cccc(C(F)(F)F)c2)c1 [ACEA100117, Di(m-trifluoromethylbenzyl)trisulfide]
IC50 [1]: 41 µM
IC50 [2]: 14900 nM
IC50 (A2780 cells): 11.8 µM
IC50 [3]: > 50000 nM
